“And” between values parts separate entries of the source, which are not always exact repeats. Equal entries are not always repeated. “Also recorded” adds a separate entry of the source.
Key:
[1] = Pharmacokinetics of a single oral dose of Toltrazuril in horses (blood levels); assay type: in vivo; conditions: single oral dose of Toltrazuril 10 mg/kg
Experimental: A pharmacokinetic study was conducted in horses comparing blood levels of Toltrazuril, Ponazuril and Toltrazuril Sulfoxide at various times post a single dose of Toltrazuril. All horses received a single dose of 10 mg/kg, which was administered orally as a suspension. Blood samples were drawn at the time of treatment (0) and at 0.25, 0.5, 1, 2, 4, 6, 12, 24, 48 and 72 hours post treatment. […] This was an indication that Ponazuril, alone, would produce acceptable blood levels that are envisioned to pass the blood-brain barrier, a characteristic required to treat neurological diseases such as those caused by Sarcocystis neurona, Toxoplasma gondii, Neospora caninum and Neospora

[2] = tested on: Sarcocystis neurona; assay: Microtiter Monolayer Disruption Assay (MMDA), Sarcocystis neurona; assay type: cell-based, Sarcocystis neurona strain SN3; conditions: BT cells
Experimental: (§1) In order to determine the scope of protection provided by Ponazuril, in vitro testing was conducted. The following strains of parasites were evaluated for their sensitivity to this compound: Strain SN3 of Sarcocystis neurona; strain SF1 of Sarcocystis falcatula; strain RH of Toxoplasma gondii; and the NC-1 strain of Neospora caninum. […]
(§2) Bovine turbinate (BT) cells were used for all in vitro studies. Cells were grown to confluency in 25 cm^2 flasks in RMPI 1640 media supplemented with 10% v/v fetal bovine serum (FBS), 100 Units penicillin (G/mL), […] streptomycin/mL and 5×10^-2 mM 2-mercpatoethanol. After cell confluence was obtained, cells were maintained in the same media with reduced FBS (2% v/v). Cell cultures were incubated at 37 C. in a humidified atmosphere containing 5% carbon dioxide and 95% air.
(§3) For growth of parasites, BT cell monolayers were infected with parasites and examined with an inverted microscope for the development of lesions (cytopathic effect, "CPE") or the presence of many extracellular merozoites. Once lesions were observed, or many extracellular parasites were present, the monolayer was scraped with the tip of a 5 mL pipette and 1 to 3 drops of the merozoite-containing fluid was transferred to two flasks of fresh BT cells. Merozoites of S. neurona and S. falcatula were passaged in this manner every 5 to 10 days while the tachyzoites of T. gondii and N. caninum were passaged every 3 to 4 days.
(§4) The assay used to determine the effectiveness of Ponazuril was the Microtiter Monolayer Disruption Assay (MMDA). This assay was used to determine if the parasites or compound were toxic for BT cells. Flat bottomed 96-well microtiter plates were inoculated with BT cells and the resulting monolayers were used to determine the effects of Toltrazuril and Ponazuril on merozoite production as measured by CPE (plaque formation). Monolayers were inoculated with parasites (S. neurona or S. falcatula at a count of 50,000/well, T. gondii at a level of 10,000/well, and N. caninum at 20,000/well. All wells were inoculated with the test compound 2 hours after infection. Untreated and […] monolayer wells served as parasite controls and uninfected agent treated BT cells served as toxicity controls. Each treatment was examined in replicates of 6. Each well was visually monitored daily and the assay was stopped when 90-100% of the untreated merozoite infected cells had lysed (90-100% CPE). All wells of the plates were rinsed in Phosphate Buffered Saline (PBS) and fixed in 100% methanol for 5 minutes after which they were stained in crystal violet solution. […]

[3] = tested on: Sarcocystis falcatula; assay: Microtiter Monolayer Disruption Assay (MMDA), Sarcocystis falcatula; assay type: cell-based, Sarcocystis falcatula strain SF1; conditions: BT cells
Experimental: In order to determine the scope of protection provided by Ponazuril, in vitro testing was conducted. The following strains of parasites were evaluated for their sensitivity to this compound: Strain SN3 of Sarcocystis neurona; strain SF1 of Sarcocystis falcatula; strain RH of Toxoplasma gondii; and the NC-1 strain of Neospora caninum. Ponazuril was tested at 2 concentrations (1 μg/mL and 10 μg/mL).
as §2, §3, §4

[4] = tested on: Neospora caninum NC-1; assay: Microtiter Monolayer Disruption Assay (MMDA), Neospora caninum; assay type: cell-based, Neospora caninum strain NC-1; conditions: BT cells
Experimental: as §1, §2, §3
(§5) The assay used to determine the effectiveness of Ponazuril was the Microtiter Monolayer Disruption Assay (MMDA). This assay was used to determine if the parasites or compound were toxic for BT cells. Flat bottomed 96-well microtiter plates were inoculated with BT cells and the resulting monolayers were used to determine the effects of Toltrazuril and Ponazuril on merozoite production as measured by CPE (plaque formation). […]

[5] = tested on: Toxoplasma gondii; assay: Microtiter Monolayer Disruption Assay (MMDA), Toxoplasma gondii; assay type: cell-based, Toxoplasma gondii strain RH; conditions: BT cells
Experimental: as §1, §2, §3, §5

[6] = tested on: Bovine turbinate (BT) cells; assay type: cell-based; conditions: uninfected BT cells
Experimental: as §2, §5

[7] = Drug levels in serum after repeated doses of Toltrazuril in horses; assay type: in vivo; set-up: unit not given here; conditions: for AVG drug level in serum, 48 Hrs / AVG drug level in serum, 96 Hrs / AVG drug level in serum, 240 Hrs: group average; for Drug level in serum, 48 Hrs / Drug level in serum, 96 Hrs / Drug level in serum, 240 Hrs: individual horse
Experimental: (§6) This experiment was conducted in order to determine whether triazineones such as Toltrazuril can pass the blood-brain barrier. Normal horses were divided into three groups of three horses per group. Group 1 horses received Toltrazuril administered orally as a 5% suspension at a dose level of 2.5 mg/Kg. Group 2 horses received Toltrazuril administered orally as a 5% suspension at a dose level of 5.0 mg/Kg. Group 3 horses received Toltrazuril administered orally as a 5% suspension at a dose level of 7.5 mg/Kg. The dosing was repeated daily for 10 days. Blood samples were drawn at 48, 96 and 240 hours and the concentration of Toltrazuril, Toltrazuril sulfoxide and Ponazuril in the serum was measured. Ten days after the start of the treatment (Day 10), a sample of cerebral spinal fluid was removed from each horse and the concentrations of Toltrazuril, Toltrazuril Sulfoxide and Ponazuril were again measured in these samples. The concentrations of Toltrazuril, Toltrazuril Sulfoxide and Ponazuril in the serum and cerebral spinal fluid are reported in TABLES 5a and 5b.

[8] = Passing of the blood-brain barrier in horses; assay type: in vivo; conditions: after oral Toltrazuril daily for 10 days
Experimental: as §6

[9] = 0.1 μg/mL, read-out: Percent Inhibition of Cell Destruction, 0.1 μg/mL
[10] = 1 μg/mL, read-out: Percent Inhibition of Cell Destruction, 1 μg/mL
[11] = 5.0 μg/mL, read-out: Percent Inhibition of Cell Destruction, 5.0 μg/mL
[12] = 10 μg/mL, read-out: Percent Inhibition of Cell Destruction, 10 μg/mL
[13] = 0.001 μg/mL, read-out: Percent Inhibition of Cell Destruction, 0.001 μg/mL
[14] = 1.0 μg/mL, read-out: Percent Inhibition of Cell Destruction, 1.0 μg/mL
[15] = Toltrazuril 2.5 mg/Kg oral daily for 10 days
[16] = Toltrazuril 5.0 mg/Kg oral daily for 10 days
[17] = Toltrazuril 7.5 mg/Kg oral daily for 10 days

## Cc1cc(-n2c(=O)[nH]c(=O)n(C)c2=O)ccc1Oc1ccc(S(=O)(=O)C(F)(F)F)cc1 [Ponazuril]
[1]; horse, blood, po, 10 mg/kg, suspension, 0.25 h post treatment, one value per horse (A-F), read-out: Concentration in mg/l of Blood, 0.25 hours
  concentration at 0.25 h: 0.01 mg/L
[1]; horse, blood, po, 10 mg/kg, suspension, 24 h post treatment, one value per horse (A-F), read-out: Concentration in mg/l of Blood, 24 hours
  concentration at 24 h: 0.324 mg/L
[1]
  levels in serum/bloodstream of horses receiving Toltrazuril (in words): relatively high levels
[1]; suspension, 0.25 h post treatment, one value per horse (A-F), 10 mg/kg, 15 min
  Concentration in mg/l of Blood, 0.25 hours: < 0.01 mg/L
[1]; suspension, 6 h post treatment, one value per horse (A-F), 10 mg/kg, 360 min
  Concentration in mg/l of Blood, 6 hours: 0.061 mg/L
[1]; suspension, 24 h post treatment, one value per horse (A-F), 10 mg/kg, 1440 min
  Concentration in mg/l of Blood, 24 hours: 0.255 mg/L and 0.315 mg/L and 0.231 mg/L and 0.192 mg/L
[2]; [9]
  inhibition at 0.1 µg/mL: 0%
[2]; [10]
  inhibition at 1 µg/mL: 40%
[2]; [11]
  inhibition at 5 µg/mL: 90%
[2]; [12]
  inhibition at 10 µg/mL: 100%
[3]; [9]
  inhibition at 0.1 µg/mL: 61%
[3]; [10]
  inhibition at 1 µg/mL: 100%
[3]; [11]
  inhibition at 5 µg/mL: 100%
[3]; [12]
  inhibition at 10 µg/mL: 100%
[4]; [13]
  inhibition at 0.001 µg/mL: 3%
[4]; 0.01 μg/mL, read-out: Percent Inhibition of Cell Destruction, 0.01 μg/mL
  inhibition at 0.01 µg/mL: 13%
[4]; [14]
  inhibition at 1 µg/mL: 100%
[5]; [13]
  inhibition at 0.001 µg/mL: 11%
[5]; [9]
  inhibition at 0.1 µg/mL: 100%
[5]; [14]
  inhibition at 1 µg/mL: 100%
[6]
  toxicity to the BT cells: not toxic
[7]; [15]
  AVG drug level in serum, 48 Hrs: 1.41
  AVG drug level in serum, 96 Hrs: 1.76
  AVG drug level in serum, 240 Hrs: 3.00
  Drug level in serum, 48 Hrs: 0.29 and 0.24 and 3.70
  Drug level in serum, 96 Hrs: 0.99 and 1.15 and 3.13
  Drug level in serum, 240 Hrs: 2.61 and 2.36 and 4.04
[7]; [16]
  AVG drug level in serum, 48 Hrs: 0.53
  AVG drug level in serum, 96 Hrs: 2.26
  AVG drug level in serum, 240 Hrs: 5.02
  Drug level in serum, 48 Hrs: 0.48 and 0.63
  Drug level in serum, 96 Hrs: 2.09 and 2.03 and 2.66
  Drug level in serum, 240 Hrs: 5.44 and 2.03 and 5.61
[7]; [17]
  AVG drug level in serum, 48 Hrs: 2.55
  AVG drug level in serum, 96 Hrs: 2.89
  AVG drug level in serum, 240 Hrs: 6.58
  Drug level in serum, 48 Hrs: 6.35 and 0.78 and 0.52
  Drug level in serum, 96 Hrs: 2.69 and 2.89 and 3.09
  Drug level in serum, 240 Hrs: 6.31 and 6.37 and 7.06
[8]
  crossing of the blood-brain barrier: effectively cross the blood-brain barrier; also recorded: crosses this barrier more effectively than does Toltrazuril

— US6150361A, “Triazineone compounds for treating diseases due to sarcosystis, neospora and toxoplasma” (Bayer Corporation, priority 1998, dated 2000)
